Assay results from the supplement of paper PMC10307832.

Assays:
Experiment in all cases: relative viability (nuclei count vs DMSO), 5 days (fraction); higher = more cells survive
Lapatinib + Pictilisib = compound: CS(=O)(=O)CCNCc1ccc(-c2ccc3ncnc(Nc4ccc(OCc5cccc(F)c5)c(Cl)c4)c3c2)o1 [Lapatinib] + CS(=O)(=O)N1CCN(Cc2cc3nc(-c4cccc5[nH]ncc45)nc(N4CCOCC4)c3s2)CC1 [Pictilisib] (partner 1 µM)
Summary of the method: (§1)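 Lung cancer cell lines in 1536-well plates were dosed by pin tool the day after seeding, either with one drug alone or with a fixed anchor-drug dose plus five library-drug doses (not always all listed) in √10 steps. After 5 days, cells were fixed and their nuclei stained in one step (final 0.05% Triton X-100, 1% formaldehyde, 1 ug/ml Hoechst), then counted on 4× images. Relative viability is the nuclei count in treated wells divided by that in vehicle wells. Values are medians of duplicate plates.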

Lapatinib + Crizotinib = compound: CS(=O)(=O)CCNCc1ccc(-c2ccc3ncnc(Nc4ccc(OCc5cccc(F)c5)c(Cl)c4)c3c2)o1 [Lapatinib] + C[C@@H](Oc1cc(-c2cnn(C3CCNCC3)c2)cnc1N)c1c(Cl)ccc(F)c1Cl [Crizotinib] (partner 1 µM)
Summary of the method: as §1

Lapatinib + Vorinostat = compound: CS(=O)(=O)CCNCc1ccc(-c2ccc3ncnc(Nc4ccc(OCc5cccc(F)c5)c(Cl)c4)c3c2)o1 [Lapatinib] + O=C(CCCCCCC(=O)Nc1ccccc1)NO [Vorinostat] (partner 1 µM)
Summary of the method: as §1

Wnt-C59 + OSI-027 = compound: CC1=NC=CC(=C1)C2=CC=C(C=C2)CC(=O)NC3=CC=C(C=C3)C4=CN=CC=C4 [Wnt-C59] + COc1cccc2cc(-c3nc([C@H]4CC[C@H](C(=O)O)CC4)n4ncnc(N)c34)[nH]c12 [OSI-027] (partner 0.5 µM)
Summary of the method: as §1

Cell Line	relative viability (Lapatinib + Pictilisib; first compound 0.02 µM)	relative viability (Lapatinib + Pictilisib; first compound 0.06325 µM)	relative viability (Lapatinib + Pictilisib; first compound 0.2 µM)	relative viability (Lapatinib + Pictilisib; first compound 0.6325 µM)	relative viability (Lapatinib + Pictilisib; first compound 2 µM)	relative viability (Lapatinib + Crizotinib; first compound 0.02 µM)	relative viability (Lapatinib + Crizotinib; first compound 0.06325 µM)	relative viability (Lapatinib + Crizotinib; first compound 0.2 µM)	relative viability (Lapatinib + Crizotinib; first compound 0.6325 µM)	relative viability (Lapatinib + Crizotinib; first compound 2 µM)	relative viability (Lapatinib + Vorinostat; first compound 0.02 µM)	relative viability (Lapatinib + Vorinostat; first compound 0.06325 µM)	relative viability (Lapatinib + Vorinostat; first compound 0.2 µM)	relative viability (Lapatinib + Vorinostat; first compound 0.6325 µM)	relative viability (Lapatinib + Vorinostat; first compound 2 µM)	relative viability (Wnt-C59 + OSI-027; first compound 0.001 µM)	relative viability (Wnt-C59 + OSI-027; first compound 0.01 µM)	relative viability (Wnt-C59 + OSI-027; first compound 0.03162 µM)	relative viability (Wnt-C59 + OSI-027; first compound 0.1 µM)
SK-MES-1	0.36	0.3	0.235	0.257	0.199	0.95	0.974	1.08	0.806	0.731	0.967	0.98	1.15	1.18	0.369	0.673	0.54	0.666	0.567
SW 1573	0.471	0.444	0.61	0.452	0.533	0.762	0.724	0.856	0.829	0.623	–	0.612	0.987	0.828	0.774	0.684	0.659	0.63	0.639
